Entries after “also recorded” stand apart in the source; their conditions may differ.
Key:
bphA gene = assay: RNA (Northern) blot of bphA gene transcription in mycelia; type: cell-based, Aspergillus niger; settings: 8 mM inducer, RNA blot (FIG. 4)
Procedure: The time course gene expression induction was examined by analyzing total RNA at different times after adding benzoic acid. Northern (RNA) blots were carried out using total RNA extracted from mycelia grown for different periods of time in the presence of benzoic acid. Initially, the fungus was inoculated in CM medium (Pontecorvo (1953) Adv. Genet. 5: 141-238) for 24 hours, transferred to benzoate-containing medium (0.1% w/v) for different times, and total RNA was extracted using the Rneasy Plant Total RNA kit (Qiagen Inc, Valencia, Calif.) according to the manufacturer's instructions. Total RNA was resolved on a formaldehyde-agarose gel and transferred to a Hybond-N nylon membrane (Amersham Life Sci. Inc, Arlington Heights, Ill.). Radiolabeled BPH probe was allowed to hybridize to the membrane, as described above. Northern blot methods were also carried out as recommended (Amersham).
Different benzoate concentrations and inducers were used to better characterize the inducibility of the bphA gene. Gene expression was assayed by Northern blots. Benzoate 4-hydroxylase activity is also assessed by enzymatic assays to confirm the inducibility at the transcriptional level described by Van Gorcom et al. ((1990) Mol. Gen. Genet. 223, 192-197). Inducibility is also verified by reverse transcription of mRNAs produced under induction conditions.
To verify the inducibility of the bphA gene by benzoic acid, A. niger was inoculated in complete medium and grown for 24 hours before being transferred to fresh medium containing 0.1% benzoic acid. Mycelia were harvested after different periods of induction, and total RNA was extracted.

BRE = assay: Activation of BRE fused to GFP in fungal protoplasts (surface receptor test); type: cell-based
Procedure: While not necessary to understand to practice the invention, a more complicated mechanism of induction may include a surface receptor that binds to benzoate and which then initiates either some kind of signal transduction cascade or the release of a TF that then culminates in the activation of the BPH promoter (FIGS. 12C and D). The hypothesis of a surface receptor was tested by using the p-NH2-benzoate coupled to agarose (as described above) as a non-cleavable external probe. Fungal protoplasts containing the BRE fused to GFP were then prepared, and activation of the BRE (production of the GFP marker) by addition of the agarose-immobilized benzoate derivative to the fungal protoplasts was scored. […] In order to investigate whether the disparity of size between the larger agarose beads and fungal protoplasts may have caused steric problems in binding of the inducer, smaller ligands still incapable of uptake are constructed and utilized to confirm a non-membrane surface location.
The hypothesis of a surface receptor was tested by using the p-NH2-benzoate coupled to agarose (as described above) as a non-cleavable external probe. Fungal protoplasts containing the BRE fused to GFP were then prepared, and activation of the BRE (production of the GFP marker) by addition of the agarose-immobilized benzoate derivative to the fungal protoplasts was scored. […]

BREF51 = assay: Electrophoretic Mobility Shift Assay (EMSA) with total protein extracts from yeast GAD clones; type: binding, A. niger; settings: 5 μg total yeast protein extract
From the text: The protein encoded by GAD1 (SEQ ID NO:15) is highly similar to a predicted protein present in the A. nidulans genome (E value 2e^−83), and similar to a hypothetical protein (B24P11.210) in the N. crassa genome (E value 4e^−27) (Table 2). GAD1 protein is rich in serine residues (16%), and is predicted by PSORTII (Nakai and Horton (1999) Trends Biochem. Sci. 24: 34-35) to be localized in the nucleus (70.6% probability). […] Serine-rich motifs can be phosphorylation targets by protein kinase C in proteins (Branden and Tooze (1999) Introduction to protein structure, 2nd ed. Garland Publishing, New York, N.Y. 410 p.). […] While not necessary to understand in order to practice the present invention, if GAD1 is involved in the regulation of BPHprom, GAD1 protein might be always bound to a benzoic acid response element in the bphA promoter. […] However, addition of benzoic acid could cause phosphorylation of one of the serine residues in GAD1, leading to its activation. […]
Positive clones identified on the one-hybrid screen were grown in 100 mL of SD/-Leu media, and total proteins were extracted following a modified procedure from that described by Arndt et al. ((1987) Science 237: 874-880). […] Protein concentration of the resulting supernatant was determined by the Bradford method (Bio-Rad, Hercules, Calif.), and BSA was used as a standard.

| Molecule | induction of transcription of the bphA gene (bphA gene) | other results |
| --- | --- | --- |
| COC(=O)c1ccccc1 [methyl benzoate] | can induce the promoter; also recorded: induced | – |
| O=C(O)CCc1ccccc1 [hydrocinnamic acid] | do not induce the promoter; also recorded: not effective inducers | – |
| O=C([O-])c1ccccc1.[Na+] [sodium benzoate] | can induce the promoter; also recorded: induced | – |
| Nc1ccc(C(=O)O)cc1 [p-aminobenzoate] | – | GFP fluorescence in the BRE-GFP transformed line (BRE): induced GFP fluorescence |
| OCc1ccccc1 [benzyl alcohol] | do not induce the promoter | induction of transcription of the bphA gene (bphA gene; listed as Benzyl alcohol): not effective inducers |
| GAD11: protein encoded by yeast one-hybrid clone GAD11 (SEQ ID NO:17), candidate transcription factor binding BREF51 (protein, Aspergillus niger) DSAESRFSLHSQGSVPPAPSTATKHMTPHNHTNNHGGPLPSKPGSEGASNNGTQITGPHESNLIEQFREREDKLWAYVRSVHEELNGLRTEVAALRAQLASANVNALAMSSQSAPQSQPETNAAGTSQR | – | gel mobility shift of the BREF51 fragment (BREF51): showed a gel mobility shift; also recorded: positive mobility shifts |
| GAD1: protein encoded by yeast one-hybrid clone GAD1 (SEQ ID NO:15), candidate transcription factor binding BREF51 (protein, Aspergillus niger) MVSFKSLLTATTLATAVLAIPHSGHGHGSHKHRSTHVASKRTSSSKRGAAYNSASSVHTLTSGSSGNGTVSWAYDWNMYADGTLPSNVEYVPMLWGSKMFGGWLTAIETALDSGSNYIMGFNEPDSSSQASMTASEAASSYKNYITPYSGKAKLVTPAVTSSTTEGEGLSWMKSFLSECSECDMSVLAVHWYGTSADEFKSFVQEAMQVADDNGLDETWVTEFALTSDESAGGDESSAADFLDEGVGRYAYYMCADGYLLSGEELSSSGKVYVA | – | gel mobility shift of the BREF51 fragment (BREF51): showed a gel mobility shift; also recorded: positive mobility shifts |
